# ChEMBL document CHEMBL6177994 (J Med Chem, 2025)
# Activity calls are given as the source filed them. No cut-off for these calls is given here.
# Experiments:
# [1] = test system: Protein cereblon/GTPase KRas (Homo sapiens), P01116+Q96SW2 [G12D]; test: PROTAC activity at CRBN/KRAS G12D mutant in human ASPC1 cells assessed as induction of KRAS G12D mutant degradation at 50 nM measured after 24 hrs by immunoblot analysis relative to control; assay type: cell-based
# [2] = test system: Protein cereblon/GTPase KRas (Homo sapiens), P01116+Q96SW2 [G12D]; test: PROTAC activity at CRBN/KRAS G12D mutant in human ASPC1 cells assessed as induction of KRAS G12D mutant degradation 0.01 to 100 nM measured after 24 hrs by immunoblot analysis relative to control; assay type: cell-based; details: dose 0.01-100 nM
# [3] = Inhibition of ERK phosphorylation in human ASPC1 cells harbouring KRAS G12D mutant measured after 24 hrs; assay type: cell-based; details: ASPC1, 24 h
# [4] = target: Protein cereblon/GTPase KRas (Homo sapiens) (UniProt P01116+Q96SW2); test: PROTAC activity at CRBN/KRAS in human MKN-1 cells assessed as induction of KRAS degradation 1 nM measured after 24 hrs by immunoblot analysis; assay type: cell-based
# Chain of Protein cereblon/GTPase KRas (Homo sapiens) (P01116 whole entry, looked up): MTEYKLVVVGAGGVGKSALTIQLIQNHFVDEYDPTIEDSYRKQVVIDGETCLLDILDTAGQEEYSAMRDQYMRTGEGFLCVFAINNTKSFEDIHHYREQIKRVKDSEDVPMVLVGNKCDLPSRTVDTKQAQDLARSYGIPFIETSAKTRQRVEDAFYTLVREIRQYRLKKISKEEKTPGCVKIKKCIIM
# Chain of Protein cereblon/GTPase KRas (Homo sapiens) (Q96SW2 whole entry, looked up): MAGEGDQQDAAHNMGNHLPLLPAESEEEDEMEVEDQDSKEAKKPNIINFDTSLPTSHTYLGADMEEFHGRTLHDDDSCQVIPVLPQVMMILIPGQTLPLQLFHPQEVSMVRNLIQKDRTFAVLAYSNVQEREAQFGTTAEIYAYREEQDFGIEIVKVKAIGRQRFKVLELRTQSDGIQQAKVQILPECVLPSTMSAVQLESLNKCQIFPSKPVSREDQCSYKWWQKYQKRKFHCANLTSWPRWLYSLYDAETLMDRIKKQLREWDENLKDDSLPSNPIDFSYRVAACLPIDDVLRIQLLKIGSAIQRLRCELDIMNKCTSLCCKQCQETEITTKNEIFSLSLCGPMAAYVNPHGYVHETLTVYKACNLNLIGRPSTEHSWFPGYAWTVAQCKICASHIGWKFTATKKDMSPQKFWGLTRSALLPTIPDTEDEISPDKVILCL
# A-427 = test: Antiproliferative activity against human A-427 cells harbouring KRAS G12D mutant assessed as inhibition of cell growth measured after 72 hrs by Cell titer glo method; assay type: functional, cell-based
# [5] = Inhibition of Raf (unknown origin)/GTP loaded KRas G12D mutant interaction preincubated for 15 mins followed by anti-tag1-eu3 and Tag2-XL665 antibody addition and measured for 120 mins by HTRF method; parameters: species or system Homo sapiens
# [6] = Antitumor activity against human PK-59 cells xenografted in female Balb/c nude mouse model assessed as tumor growth inhibition at 0.1 mg/kg, iv QW measured after 28 days relative to control; assay type: functional; details: PK-59, 672 h, time 28 day, read-out: TGI
# [7] = Antitumor activity against human PK-59 cells xenografted in female Balb/c nude mouse model assessed as tumor growth inhibition at 1 mg/kg, iv QW measured after 28 days relative to control; assay type: functional; details: PK-59, 672 h, time 28 day, read-out: TGI
# [8] = Toxicity in female Balb/c nude mouse xenografted with human PK-59 cells assessed as change in body weight at 0.1 to 3 mg/kg, iv QW measured after 28 days; assay type: organism-based; details: in vivo, 672 h, dose 0.1-3 mg/kg, time 28 day
# [9] = Antitumor activity against human GP2d cells xenografted in female Balb/c nude mouse model assessed as tumor growth inhibition at 1 mg/kg, iv QW measured after 28 days relative to control; assay type: functional; details: 672 h, time 28 day, read-out: TGI
# [10] = Antitumor activity against human GP2d cells xenografted in female Balb/c nude mouse model assessed as tumor growth inhibition at 3 mg/kg, iv QW measured after 28 days relative to control; assay type: functional; details: 672 h, time 28 day, read-out: TGI
# [11] = Toxicity in female Balb/c nude mouse xenografted with human GP2d cells assessed as drug tolerance at 1 to 10 mg/kg, iv QW measured after 28 days; assay type: organism-based; details: in vivo, 672 h, dose 1-10 mg/kg, time 28 day
# [12] = Drug concentration in male Balb/c nude mouse plasma xenografted with human PK-59 cells at 10 mg/kg, iv administered as single dose measured after 6 hrs by LC-MS/MS analysis; assay type: ADME, organism-based
# [13] = test system: Protein cereblon/GTPase KRas (Homo sapiens), P01116+Q96SW2 [G12D]; test: In vivo PROTAC activity at CRBN/KRAS G12D mutant in male Balb/c nude mouse xenografted with human PK-59 cells assessed as degradation of KRAS G12D mutant at 10 mg/kg, iv measured up to 168 hrs relative to control; assay type: functional, organism-based
# [14] = test system: Protein cereblon/GTPase KRas (Homo sapiens), P01116+Q96SW2 [G12D]; test: In vivo PROTAC activity at CRBN/KRAS G12D mutant in male Balb/c nude mouse xenografted with human PK-59 cells assessed as reduction in DUSP4 level in tumor at 10 mg/kg, iv measured up to 168 hrs relative to control; assay type: functional, organism-based; parameters: scale not given: the % may be the effect or the level left
# [15] = Drug concentration in male Balb/c nude mouse plasma xenografted with human GP2d cells at 10 mg/kg, iv administered as single dose measured after 168 hrs by LC-MS/MS analysis; assay type: ADME, organism-based
# [16] = test system: Protein cereblon/GTPase KRas (Homo sapiens), P01116+Q96SW2 [G12D]; test: In vivo PROTAC activity at CRBN/KRAS G12D mutant in male Balb/c nude mouse xenografted with human GP2d cells assessed as inhibition of DUSP4 level at 10 mg/kg, iv measured after 7 days; assay type: functional, organism-based; details: time 7.0 day
# [17] = test system: Protein cereblon/GTPase KRas (Homo sapiens), P01116+Q96SW2 [G12D]; test: In vivo PROTAC activity at CRBN/KRAS G12D mutant in male Balb/c nude mouse xenografted with human GP2d cells assessed as increase in cleaved caspase 7 level at 10 mg/kg, iv measured after 7 days; assay type: functional, organism-based; details: time 7.0 day
# [18] = Stability in mouse plasma assessed as half life at 1 uM measured up to 120 mins by LC-MS/MS analysis; assay type: ADME, cell-free
# [19] = Stability in monkey plasma assessed as half life at 1 uM measured up to 120 mins by LC-MS/MS analysis; assay type: ADME, cell-free, Macaca mulatta; details: rhesus monkey
# [20] = Metabolic stability in mouse liver microsomes assessed as half life at 1 uM preincubated for 3 mins with NADPH and measured up to 60 mins by LC-MS/MS analysis; assay type: ADME, Microsome; details: time < 63 min
# [21] = Metabolic stability in monkey liver microsomes assessed as half life at 1 uM preincubated for 3 mins with NADPH and measured up to 60 mins by LC-MS/MS analysis; assay type: ADME, Macaca mulatta, Microsome; details: rhesus monkey, time < 63 min
# Cytochrome P450 1A2 = Cytochrome P450 1A2 (Homo sapiens, UniProt P05177); test: Inhibition of CYP1A2 in human liver microsomes using phenacetin as substrate at 10 uM incubated for 15 mins in presence of NADPH by LC/MS analysis; assay type: ADME, Microsome; details: 0.25 h
# Chain of Cytochrome P450 1A2 (P05177 whole entry): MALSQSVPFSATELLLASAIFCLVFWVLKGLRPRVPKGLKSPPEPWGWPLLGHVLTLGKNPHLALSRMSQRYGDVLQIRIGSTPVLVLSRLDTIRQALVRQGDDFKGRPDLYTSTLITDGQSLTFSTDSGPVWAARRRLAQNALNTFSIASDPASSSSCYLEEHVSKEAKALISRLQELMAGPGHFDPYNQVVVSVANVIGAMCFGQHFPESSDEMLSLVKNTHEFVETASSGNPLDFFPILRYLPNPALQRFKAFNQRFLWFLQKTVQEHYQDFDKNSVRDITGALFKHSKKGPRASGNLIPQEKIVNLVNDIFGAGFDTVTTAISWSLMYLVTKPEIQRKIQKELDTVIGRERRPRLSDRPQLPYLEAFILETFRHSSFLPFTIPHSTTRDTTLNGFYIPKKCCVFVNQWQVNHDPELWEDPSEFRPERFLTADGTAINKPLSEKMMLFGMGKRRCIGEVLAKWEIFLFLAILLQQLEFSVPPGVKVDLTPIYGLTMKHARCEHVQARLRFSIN
# Cytochrome P450 2C9 = Cytochrome P450 2C9 (Homo sapiens, UniProt P11712); test: Inhibition of CYP2C9 in human liver microsomes using diclofenac as substrate at 10 uM incubated for 15 mins in presence of NADPH by LC/MS analysis; assay type: ADME, Microsome; details: 0.25 h
# Chain of Cytochrome P450 2C9 (P11712 whole entry): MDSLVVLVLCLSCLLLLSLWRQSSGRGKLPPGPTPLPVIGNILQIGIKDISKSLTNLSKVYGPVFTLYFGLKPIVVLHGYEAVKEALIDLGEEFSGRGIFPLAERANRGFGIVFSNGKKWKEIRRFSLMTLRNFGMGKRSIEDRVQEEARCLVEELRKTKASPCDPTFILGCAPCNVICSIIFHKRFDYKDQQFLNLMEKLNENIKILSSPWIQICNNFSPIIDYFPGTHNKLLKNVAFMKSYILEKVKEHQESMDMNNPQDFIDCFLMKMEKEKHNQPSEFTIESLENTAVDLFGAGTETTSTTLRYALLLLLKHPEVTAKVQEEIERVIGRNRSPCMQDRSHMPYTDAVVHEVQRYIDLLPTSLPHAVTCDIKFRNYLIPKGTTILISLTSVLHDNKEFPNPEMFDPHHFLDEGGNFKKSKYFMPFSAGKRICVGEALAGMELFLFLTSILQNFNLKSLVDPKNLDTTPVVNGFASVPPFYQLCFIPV
# Cytochrome P450 2D6 = Cytochrome P450 2D6 (Homo sapiens, UniProt P10635); test: Inhibition of CYP2D6 in human liver microsomes using dextromethorphan as substrate at 10 uM incubated for 15 mins in presence of NADPH by LC/MS analysis; assay type: ADME, Microsome; details: 0.25 h
# Chain of Cytochrome P450 2D6 (P10635 whole entry): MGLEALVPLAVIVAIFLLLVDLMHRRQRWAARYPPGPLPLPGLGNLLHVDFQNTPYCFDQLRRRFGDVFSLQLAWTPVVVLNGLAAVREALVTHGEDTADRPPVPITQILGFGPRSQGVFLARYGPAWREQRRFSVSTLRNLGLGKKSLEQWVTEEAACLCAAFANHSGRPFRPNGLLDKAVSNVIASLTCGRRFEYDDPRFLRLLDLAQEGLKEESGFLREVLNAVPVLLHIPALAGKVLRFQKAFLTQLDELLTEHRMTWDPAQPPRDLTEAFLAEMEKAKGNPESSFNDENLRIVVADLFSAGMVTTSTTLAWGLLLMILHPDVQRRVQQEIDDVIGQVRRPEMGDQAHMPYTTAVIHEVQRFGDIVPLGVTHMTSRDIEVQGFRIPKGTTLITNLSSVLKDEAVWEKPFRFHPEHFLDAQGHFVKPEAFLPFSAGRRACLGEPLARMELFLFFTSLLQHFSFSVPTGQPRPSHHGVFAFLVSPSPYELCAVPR
# Cytochrome P450 3A4 = Cytochrome P450 3A4 (Homo sapiens, UniProt P08684); test: Inhibition of CYP3A4 in human liver microsomes using testosterone as substrate at 10 uM incubated for 15 mins in presence of NADPH by LC/MS analysis; assay type: ADME, Microsome; details: 0.25 h
# Chain of Cytochrome P450 3A4 (P08684 whole entry): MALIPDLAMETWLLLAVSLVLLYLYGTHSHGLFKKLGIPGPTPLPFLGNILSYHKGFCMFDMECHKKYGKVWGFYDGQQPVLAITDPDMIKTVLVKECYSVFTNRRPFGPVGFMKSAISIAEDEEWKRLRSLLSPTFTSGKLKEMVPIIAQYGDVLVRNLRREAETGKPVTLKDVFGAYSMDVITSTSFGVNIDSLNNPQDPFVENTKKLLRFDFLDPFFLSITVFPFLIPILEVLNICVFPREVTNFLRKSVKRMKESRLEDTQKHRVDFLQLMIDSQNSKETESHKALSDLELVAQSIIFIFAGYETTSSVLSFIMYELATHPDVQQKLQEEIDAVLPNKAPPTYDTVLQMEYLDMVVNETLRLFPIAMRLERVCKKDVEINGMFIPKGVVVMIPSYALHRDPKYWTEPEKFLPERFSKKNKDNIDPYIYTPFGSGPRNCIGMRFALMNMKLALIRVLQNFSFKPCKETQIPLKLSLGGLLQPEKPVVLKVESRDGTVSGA
# [22] = Plasma protein binding in mouse at 2 uM by LC-MS/MS analysis; assay type: ADME, cell-free; details: read-out: PPB
# [23] = Plasma protein binding in dog at 2 uM by LC-MS/MS analysis; assay type: ADME, cell-free, Canis lupus familiaris; details: read-out: PPB
# [24] = Plasma protein binding in monkey at 2 uM by LC-MS/MS analysis; assay type: ADME, cell-free, Macaca mulatta; details: rhesus monkey, read-out: PPB
# [25] = Plasma protein binding in human at 2 uM by LC-MS/MS analysis; assay type: ADME, cell-free; details: read-out: PPB
# [26] = Half life in male ICR mouse at 1 mg/kg, iv measured up to 24 hrs by LC-MS/MS analysis; assay type: ADME, organism-based; details: in vivo
# [27] = Clearance in male ICR mouse at 1 mg/kg, iv measured up to 24 hrs by LC-MS/MS analysis; assay type: ADME, organism-based; details: in vivo
# [28] = Volume of distribution at steady state in male Beagle dog at 1 mg/kg, iv measured up to 24 hrs by LC-MS/MS analysis; assay type: ADME, organism-based, Canis lupus familiaris; details: in vivo, read-out: Vdss
# Chain of Protein cereblon/GTPase KRas (Homo sapiens), P01116+Q96SW2 [G12D] (P01116 whole entry G12D): as the sequence (P01116 whole entry, looked up) above, with G12D counted along it
# Chain of Protein cereblon/GTPase KRas (Homo sapiens), P01116+Q96SW2 [G12D] (Q96SW2 whole entry partner): as the sequence (Q96SW2 whole entry, looked up) above
smiles,measurement,setting,value
C#Cc1c(F)ccc2cc(O)cc(-c3ncc4c(N5CC6CCC(C5)N6)nc(OCC5(CN6CCC7(CC6)CC(N6CCC(c8cc9c(cc8F)c(N8CCC(=O)NC8=O)nn9C)CC6)C7)CC5)nc4c3F)c12,Activity,[1],74%
same,Emax,[2],89%
same,IC50,[3],2.5 nM
same,Activity,[4],inactive
same,Activity,A-427,Active; Compound Showed Stronger Antiproliferative Activity Compared To Mrtx1133
same,IC50,[5],3.23 nM
same,inhibition in vivo at 0.1 mg/kg,[6],81.4%
same,inhibition in vivo at 1 mg/kg,[7],98%
same,Activity,[8],Non-toxic
same,inhibition in vivo at 1 mg/kg,[9],74.8%
same,inhibition in vivo at 3 mg/kg,[10],96.9%
same,Activity,[11],Non-toxic
same,concentration at 6 h,[12],270 ng/mL
same,Activity,[13],87.7%
same,Activity,[14],6.1%
same,concentration at 168 h,[15],4.1 ng/mL
same,Activity,[16],Active
same,Activity,[17],Active
same,half-life at 1 µM,[18],8.88 h
same,half-life at 1 µM,[19],12.8 h
same,half-life at 1 µM,[20],7.22 h
same,half-life at 1 µM,[21],7.22 h
same,inhibition (INH),Cytochrome P450 1A2,Not_active
same,inhibition (INH),Cytochrome P450 2C9,Not_active
same,inhibition (INH),Cytochrome P450 2D6,Not_active
same,inhibition (INH),Cytochrome P450 3A4,Not_active
same,fraction unbound at 2 µM,[22],< 0.05
same,fraction unbound at 2 µM,[23],< 0.05
same,fraction unbound at 2 µM,[24],< 0.05
same,fraction unbound at 2 µM,[25],< 0.05
same,half-life,[26],8.82 h
same,clearance,[27],39 mL/min/kg
same,Vd,[28],16 L/kg
